From PubChem BioAssay AID328 (DTP/NCI, 2004) come the findings set out here.

Structures are written as SMILES. “And” between values parts separate entries of the source, which are not always exact repeats. Equal entries are not always repeated. Toxic doses and inconclusive results are not listed.

The assay has as its system BDF1 mice, P388 leukemia ip, median survival T/C. The assay can be described thus: NCI In Vivo Anticancer Drug Screen. Data for tumor model P388 Leukemia (intraperitoneal) in B6D2F1 (BDF1) mice. The conditions noted are these: endpoint: median survival time, higher = longer survival. Put shortly:
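Transplantable tumour in mice; compound vs vehicle dosing; survival scored; ratio of treated to control reported.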

[1] abbreviates: dose: 12.5 mg/kg/injection, schedule: Q04DX003 (ip), vehicle: saline.
The mark [2] stands for this setting: dose: 50.0 mg/kg/injection, schedule: Q01DX009 (ip), vehicle: saline.
The mark [3] stands for this setting: dose: 100.0 mg/kg/injection, schedule: Q01DX009 (ip), vehicle: saline.
Where [4] appears, read: dose: 100.0 mg/kg/injection, schedule: Q04DX003 (ip), vehicle: saline with Tween-80.
[5] abbreviates: dose: 200.0 mg/kg/injection, schedule: Q04DX003 (ip), vehicle: saline with Tween-80.
Where [6] appears, read: dose: 400.0 mg/kg/injection, schedule: Q04DX003 (ip), vehicle: saline with Tween-80.
[7] abbreviates: dose: 100.0 mg/kg/injection, schedule: Q01DX009 (ip), vehicle: Klucel (hydroxypropylcellulose) (HPC).
Setting [8] is: dose: 200.0 mg/kg/injection, schedule: Q01DX009 (ip), vehicle: Klucel (hydroxypropylcellulose) (HPC).
Setting [9] is: dose: 50.0 mg/kg/injection, schedule: Q04DX003 (ip), vehicle: saline.
Where [10] appears, read: dose: 100.0 mg/kg/injection, schedule: Q04DX003 (ip), vehicle: saline.
Where [11] appears, read: dose: 25.0 mg/kg/injection, schedule: Q04DX003 (ip), vehicle: saline.

Consider `O=P(N1CCCC1)(N1CC1)N1CC1`, for which the T/C is 89 % of control (dose: 0.74 mg/kg/injection, schedule: Q01DX009 (ip), vehicle: saline); 98 % of control (dose: 1.11 mg/kg/injection, schedule: Q01DX009 (ip), vehicle: saline); 121 % of control (dose: 1.67 mg/kg/injection, schedule: Q01DX009 (ip), vehicle: saline); 205 % of control (dose: 2.2 mg/kg/injection, schedule: Q01DX009 (ip), vehicle: saline); 113 % of control (dose: 2.2 mg/kg/injection, schedule: Q04DX003 (ip), vehicle: saline); 180 % of control (dose: 2.5 mg/kg/injection, schedule: Q01DX009 (ip), vehicle: saline). The T/C (dose: 3.3 mg/kg/injection, schedule: Q01DX009 (ip), vehicle: saline) is 255 % of control; the T/C (dose: 5.0 mg/kg/injection, schedule: Q01DX009 (ip), vehicle: saline) was 268 % of control and 317 % of control; the T/C (dose: 5.56 mg/kg/injection, schedule: Q04DX003 (ip), vehicle: saline) was 150 % of control; the T/C (dose: 7.5 mg/kg/injection, schedule: Q01DX009 (ip), vehicle: saline) was 112 % of control; the T/C (dose: 7.5 mg/kg/injection, schedule: Q04DX003 (ip), vehicle: saline) is 182 % of control; the T/C (dose: 8.33 mg/kg/injection, schedule: Q04DX003 (ip), vehicle: saline) is 204 % of control. Also, the T/C reads like this: under setting [1], 240 % of control and 250 % of control; (dose: 18.7 mg/kg/injection, schedule: Q04DX003 (ip), vehicle: saline) 272 % of control.
For the compound `CCN1CCC(O)(c2ccc(Br)cc2)C1` (stereo not given), the T/C by setting is: under setting [2], 106 % of control; under setting [3], 97 % of control.
As for `CCOc1ccc(S(=O)(=O)c2ccc(C)cc2)c2c1no[n+]2[O-]`, the T/C (dose: 15.0 mg/kg/injection, schedule: Q01DX009 (ip), vehicle: saline with Tween-80) is 102 % of control.
Consider `COc1cc(C=O)ccc1OCc1ccccc1`, for which the T/C is, setting by setting: (dose: 1.0 mg/kg/injection, schedule: Q01DX009 (ip), vehicle: saline with Tween-80) 109 % of control; (dose: 2.0 mg/kg/injection, schedule: Q01DX009 (ip), vehicle: saline with Tween-80) 104 % of control; (dose: 4.0 mg/kg/injection, schedule: Q01DX009 (ip), vehicle: saline with Tween-80) 104 % of control; (dose: 8.0 mg/kg/injection, schedule: Q01DX009 (ip), vehicle: saline with Tween-80) 92 % of control; under setting [4], 95 % of control; under setting [5], 109 % of control. The T/C under setting [6] is 109 % of control.
Regarding `COc1ccc2[nH]c(-c3ccccc3)c(-c3ccccc3)c2c1`, the T/C is, setting by setting: (dose: 25.0 mg/kg/injection, schedule: Q01DX009 (ip), vehicle: saline with Tween-80) 95 % of control; (dose: 50.0 mg/kg/injection, schedule: Q01DX009 (ip), vehicle: saline with Tween-80) 90 % of control; (dose: 100.0 mg/kg/injection, schedule: Q01DX009 (ip), vehicle: saline with Tween-80) 90 % of control.
In the case of `COc1cc2cc3c4cc(OC)c(OC)cc4cc[n+]3c(CCC(=O)O)c2cc1OC` (tested in a mixture with another compound), the T/C under setting [7] is 92 % of control and the T/C under setting [8] is 119 % of control.
In the case of `COc1ccc2c(c1)CCC1C2CCC2(C)/C(=N/O)C(Cl)C(O)C12` (stereo not given), the T/C is, setting by setting: (dose: 6.25 mg/kg/injection, schedule: Q01DX001 (ip), vehicle: saline with Tween-80) 100 % of control; (dose: 12.5 mg/kg/injection, schedule: Q01DX001 (ip), vehicle: saline with Tween-80) 109 % of control; (dose: 25.0 mg/kg/injection, schedule: Q01DX001 (ip), vehicle: saline with Tween-80) 97 % of control.
As for `O=S1(=O)CC(O)C(Cl)C1` (stereo not given), the T/C is 104 % of control (dose: 100.0 mg/kg/injection, schedule: Q01DX001 (ip), vehicle: saline); 100 % of control (dose: 100.0 mg/kg/injection, schedule: Q04DX003 (ip), vehicle: Klucel (hydroxypropylcellulose) (HPC)); 100 % of control (dose: 200.0 mg/kg/injection, schedule: Q01DX001 (ip), vehicle: saline); 100 % of control (dose: 200.0 mg/kg/injection, schedule: Q04DX003 (ip), vehicle: Klucel (hydroxypropylcellulose) (HPC)); 100 % of control (dose: 400.0 mg/kg/injection, schedule: Q04DX003 (ip), vehicle: Klucel (hydroxypropylcellulose) (HPC)).
On to `Nc1nc(N)nc(N)n1`, for which the T/C is 90 % of control under setting [7]; 90 % of control under setting [8]; 100 % of control (dose: 400.0 mg/kg/injection, schedule: Q01DX009 (ip), vehicle: Klucel (hydroxypropylcellulose) (HPC)); 100 % of control (dose: 800.0 mg/kg/injection, schedule: Q01DX009 (ip), vehicle: Klucel (hydroxypropylcellulose) (HPC)); 95 % of control (dose: 2000.0 mg/kg/injection, schedule: Q01DX009 (ip), vehicle: Klucel (hydroxypropylcellulose) (HPC)).
Consider `COCCOP(=O)(N1CC1)N1CC1`, for which the T/C was 190 % of control (dose: 33.0 mg/kg/injection, schedule: Q04DX003 (ip), vehicle: saline); 236 % of control under setting [9]; 272 % of control (dose: 75.0 mg/kg/injection, schedule: Q04DX003 (ip), vehicle: saline); 118 % of control under setting [10].
Regarding `C[n+]1csc(=S)[nH]1`, the T/C under setting [11] was 86 % of control, the T/C under setting [9] is 95 % of control and the T/C under setting [10] is 100 % of control.
Take `N=C([Se])c1ncn(C2OC(CO)C(O)C2O)c1N` (stereo not given): the T/C is 106 % of control (dose: 6.25 mg/kg/injection, schedule: Q04DX003 (ip), vehicle: saline); 108 % of control under setting [1]; 111 % of control under setting [11]; 106 % of control under setting [9].
For `CCCCCCC(=O)NC1=C(N2CC2)C(=O)C(NC(=O)CCCCCC)=C(N2CC2)C1=O`, the T/C is, setting by setting: (dose: 25.0 mg/kg/injection, schedule: Q01DX009 (ip), vehicle: Klucel (hydroxypropylcellulose) (HPC)) 182 % of control; (dose: 25.0 mg/kg/injection, schedule: Q01DX009 (ip), vehicle: saline) 234 % of control; (dose: 50.0 mg/kg/injection, schedule: Q01DX009 (ip), vehicle: Klucel (hydroxypropylcellulose) (HPC)) 208 % of control; under setting [2], 241 % of control; (dose: 66.0 mg/kg/injection, schedule: Q04DX003 (ip), vehicle: saline with Tween-80) 166 % of control; under setting [7], 154 % of control. Also, the T/C was 328 % of control under setting [3]; 191 % of control and 200 % of control under setting [4]; 200 % of control (dose: 150.0 mg/kg/injection, schedule: Q04DX003 (ip), vehicle: saline with Tween-80); 107 % of control (dose: 200.0 mg/kg/injection, schedule: Q01DX009 (ip), vehicle: saline); 154 % of control under setting [5]; 95 % of control under setting [6].
For the compound `COc1cc(OC)c(OC)cc1/C=N/Nc1ccc(C(=O)O)cc1`, the T/C is 105 % of control under setting [4], 100 % of control under setting [5] and 110 % of control under setting [6].
As for `CCCCCCC(N)C(C)=O` (stereo not given), the T/C is, setting by setting: under setting [2], 93 % of control; under setting [3], 95 % of control.
For `[I][Hg][CH2]C1COC([CH2][Hg][I])CO1` (stereo not given), the T/C (dose: 0.78 mg/kg/injection, schedule: Q01DX010 (ip), vehicle: saline) was 95 % of control; the T/C (dose: 1.56 mg/kg/injection, schedule: Q01DX010 (ip), vehicle: saline) is 95 % of control and 118 % of control; the T/C (dose: 3.13 mg/kg/injection, schedule: Q01DX010 (ip), vehicle: saline) is 100 % of control and 122 % of control; the T/C (dose: 6.25 mg/kg/injection, schedule: Q01DX010 (ip), vehicle: saline) is 122 % of control; the T/C (dose: 12.5 mg/kg/injection, schedule: Q01DX010 (ip), vehicle: saline) is 118 % of control.
